Series [1] relates to K562. Put plainly: Cell viability MTT assay, 96 h. The format is cell-based. As to conditions: Homo sapiens. How it is done: (§1) Cells were seeded in 96-well plates and incubated with different concentrations of compound 13, 68 or other anticancer drugs for 96 h. Cell viability was quantitated by MTT assay. […] Table 4 is a comparison of the IC50 of compounds 13, 68 and other anticancer drugs in the K562 and doxorubicin-resistant K562/DOX cell lines.
(In general: Tetrazolium dyes change colour on reduction, which living cells bring about.)

Series [2] deals with K562/Dox. As to the kind of experiment: Cell viability MTT assay, 96 h. The format is cell-based. To be noted: Homo sapiens, doxorubicin-resistant. As to the method:
as §1

The test system of series [3] is MES-SA/DX5 xenografts. As to the kind of experiment: In vivo antitumor efficacy, MES-SA/DX5 xenograft. To be noted: for TGI (tumor growth inhibition): MES-SA/DX5 xenograft, q2d, i.p. As to the method:
(§2) The control group was treated with vehicle (10% DMSO in PEG300).

Series [4] relates to K562/Dox. As to the kind of experiment: Growth inhibition assay (MTT, 96 h). To be noted: for IC50: Homo sapiens, K562/Dox, P-gp over-expressed, 96 h; for resistance factor (ratio of IC50 resistant subline to parental cell line): K562/Dox vs K562 (P-gp). The format is cell-based, human. The text has this: (§3) MTT (3-(4,5-dimethylthiazol-2-yl)-2,5-diphenyltetrazolium bromide) assay was also used for the leukemia cell lines. […] Cells were stained with SRB solution or MTT solution.

For series [5], the system named is MES-SA xenografts. As to the kind of experiment: In vivo antitumor efficacy, MES-SA xenograft. Details: species or system mice. As to conditions: q2d, i.p. How it is done:
as §2

Series [6] deals with human cancer cell lines from prostate, colon, breast, and bladder. As to the kind of experiment: Cell proliferation by SRB assay, panel of cell lines. In kind it is cell-based. As to conditions: read-out: IC50 values, range over cell lines. How it is done: as §3
Cell proliferation was measured by SRB assay.
On the technique in general: In SRB staining, fixed cells bind dye roughly in proportion to their protein.

Series [7] concerns PC-3 cells. Put plainly: DNA fragmentation by cell death detection ELISA (anti-histone). To be noted: Homo sapiens, 24 h, read-out: EC50 of increase of enrichment factor (DNA fragmentation). The format is cell-based. As to the method:
Apoptosis was measured by quantitation of cytoplasmic histone-associated DNA fragments using the cell death detection ELISA kit. Cells were seeded in 6-well plates and exposed to 68 for 24 h at different concentrations. The quantitation of DNA fragments was performed according to the manufacturer's instructions. Results are expressed as the enrichment factor (i.e., the ratio of the optical density in treated cells to the optical density in control cells).
A general note: An ELISA detects its analyte on a solid surface through an enzyme-linked reagent.

Series [8] deals with HEK293-MRP1. Put plainly: Growth inhibition assay (96 h). In kind it is cell-based, human. To be noted: HEK293-MRP1 vs HEK293-pcDNA3.1.
Series [9] deals with MRP1 (over-expressed in the cells). As to the kind of experiment: Growth inhibition assay (96 h). In kind it is cell-based, human. To be noted: human, HEK293 cells over-expressing MRP1 (HEK293-MRP1); HEK293-MRP1, MRP1 over-expressed, 96 h.
The subject of series [10] is PC-12 cells. Put plainly: In vitro NGF-dependent neurite outgrowth. The format is cell-based. As to the method:
PC-12 cells were seeded in 6-well plates coated with poly-D-lysine (BD, Franklin Lakes, N.J.) (10000 cells/well). After 6 h, cells were pretreated for 3 days by adding 100 ng/mL murine 2.5S β-NGF (Promega, Madison, Wis.) to induce neuronal differentiation and neurite outgrowth. Differentiated cells were then treated for 24 h with compounds at various concentrations in the presence of NGF (100 ng/mL). Vinblastine and docetaxel were used as positive controls. After compound treatments, approximately 100 cells in each well were randomly chosen and the numbers of cells with no neurites, short neurites (<2×cell body), and long neurites (>2×cell body) were counted (n=3).

For series [11], the system named is PC-3. As to the kind of experiment: Growth inhibition assay (SRB, 96 h). The format is cell-based, human. To be noted: PC-3, 96 h.
Description: as §3

The subject of series [12] is HEK293-MRP2. Put plainly: Growth inhibition assay (96 h). As to conditions: HEK293-MRP2 vs HEK293-pcDNA3.1. The format is cell-based, human.
Series [13] deals with MRP2 (over-expressed in the cells). Put plainly: Growth inhibition assay (96 h). In kind it is cell-based, human. As to conditions: human, HEK293 cells over-expressing MRP2 (HEK293-MRP2); HEK293-MRP2, MRP2 over-expressed, 96 h.
The test system of series [14] is HEK293-pcDNA3.1. As to the kind of experiment: Growth inhibition assay (96 h). As to conditions: Homo sapiens, HEK293-pcDNA3.1 (control for MRP). In kind it is cell-based, human.
Description: as §3

Series [15] relates to MES-SA/DX5. Put plainly: Growth inhibition assay (96 h). The format is cell-based, human. As to conditions: for resistance factor (ratio of IC50 resistant subline to parental cell line): MES-SA/DX5 vs MES-SA (P-gp).
Description: as §3

The test system of series [16] is solid tumor cell lines. Put plainly: Growth inhibition, range over the cell lines of Table 2. The format is cell-based. As to conditions: Homo sapiens, read-out: IC50 values, range over the cell lines tested. As to the method:
Cell viability (LNCaP, PC-3 prostate, DU145, PPC-1, and TSU-Pr1 prostate cancer cell lines, HT-29 colon cancer cell line, and MCF-7 breast cancer cell line) was quantitated using the sulforhodamine B (SRB) assay after 96 h coincubation with different concentrations of compound in 96-well plates. Cell viability of leukemia cells (K562 and doxorubicin-resistant K562/Dox) was quantitated by MTT assay after 96 h coincubation with different concentrations of compound in 96-well plates. Drug-induced apoptosis was determined by anti-histone ELISA assay and DNA laddering. Cell cycle progression was assessed by propidium iodide staining and fluorescence-activated cell sorting (FACS) analysis. In vitro tubulin polymerization assay was determined by CytoDYNAMIX ScreenTM3 (CDS-03) kits according to the manufacturer's instructions. Anti-apoptosis protein (Bcl-2 and Bcl-xl) and pro-apoptosis protein (Bax) were examined in LNCaP and PC-3 after 24 h incubation with different concentrations of compound 13 by Western blot assay. In vivo PC-3 xenograft studies were conducted by i.v. dosing of 50 mg/kg, 100 mg/kg and 150 mg/kg for 2 weeks.
Cells were plated in 96-well plates at a density of 800-5,000 cells/well, depending on the cell line, in their required growth media containing 10% fetal bovine serum. […]

As a reminder, the IC50 is the concentration at which inhibition is half-maximal. As a reminder, the EC50 is the concentration giving half of the maximal effect. Turning to `CC[C@]1(O)C[C@@H]2CN(CCc3c([nH]c4ccccc34)[C@@](C(=O)OC)(c3cc4c(cc3OC)N(C)[C@H]3[C@@](O)(C(=O)OC)[C@H](OC(C)=O)[C@]5(CC)C=CCN6CC[C@]43[C@@H]65)C2)C1` [Vinblastine], the IC50 in [1] was 0.3 ± 0.1 nM; in series [2] it was 140 ± 10.1 nM; in [4], 268 ± 48 nM; in [6], 1.1 to 6.3 nM; in series [11] (Homo sapiens), 1 nM; in [14], 5 ± 1 nM. For the same compound, the results for the “TGI (tumor growth inhibition)” value in series [3] (0.5 mg/kg) and in [5] (0.5 mg/kg) were 24% and 48%, respectively. Further, the “resistance factor (ratio of IC50 resistant subline to parental cell line)” value in [4] is recorded as “(191)”; in series [8] it was “(4.9)”; in series [8] (listed as vinblastine), 4.9; in series [12], “(3.7)”; in series [12] (listed as vinblastine), 3.7; in series [15], “(20)”. The EC50 in series [7] was 8.1 nM. The IC50 at 96 h is 24.3 ± 2 nM in series [9] and 18.1 ± 4 nM in series [13]. For the same compound, the “cells with long neurites” value in series [10] (PC12, NGF 100 ng/mL, 24 h, 5 nM) stood at 1.5%. Further, the “cells with elongated neurites” value in series [10] (PC12, NGF 100 ng/mL, 24 h, 5 nM (vehicle 88%)) is “Twenty-one”.

For the compound `COc1cc(C(=O)c2cccc(-c3cc4ccccc4[nH]3)c2)cc(OC)c1OC` [Compound 68, [3-(1H-Indol-2-yl)-phenyl]-(3,4,5-trimethoxy-phenyl)-methanone], the IC50 was 23.6 ± 2.4 nM in [1]; 18 ± 4.4 nM in [2]; 18 ± 4.4 nM in [4]; 15.1 to 39.2 nM in [6]; 18 to 31 nM in [16]; 28 nM in series [11] (Homo sapiens). Besides, the half-maximal inhibitory concentration (IC50) in [11] was determined as 28.2 ± 2 nM; in [14], 23.8 ± 1.7 nM; in series [15] (Homo sapiens, MES-SA/DX5, P-gp over-expressed, 96 h), 32.3 ± 8.2 nM. Besides, the “general toxicity and body weight loss” value in series [3] (MES-SA and MES-SA/DX5 xenograft mice, 5 or 10 mg/kg) is given as “did not induce any general toxicity or significant body weight loss”. Also, the “TGI (tumor growth inhibition)” value in [3] (5 mg/kg) worked out at 47%; in [3] (10 mg/kg), 76%; in series [5] (5 mg/kg) it was 47%; in [5] (10 mg/kg), 74%. The “resistance factor (ratio of IC50 resistant subline to parental cell line)” value is “(0.8)” in [4], “(1.3)” in [8], “(1.3)” in series [12] and “(1.0)” in series [15]. The EC50 in [7] was found to be 42.7 nM. The IC50 at 96 h worked out at 30.4 ± 6.4 nM in [9] and 31.5 ± 8 nM in series [13]. This compound yielded a cells with neurites in [10] (PC12, 50 nM, 'a more toxic dose than IC50 value') of 60%. Further, the “cells showing neurite elongation” value in [10] (PC12, NGF 100 ng/mL, 24 h, 50 nM (vehicle 88%)) worked out at 59%.

For `O=C(c1cccc(-c2cc3ccccc3[nH]2)c1)c1cc2ccccc2[nH]1` [Compound 13, (1H-indol-2-yl)-[3-(1H-indol-2-yl)phenyl]methanone], the IC50 is 63.6 ± 2.4 nM in series [1], 78.2 ± 2.9 nM in series [2] and 34 to 138 nM in [16].

For the origin of these results see US20120022121A1, “INDOLES, DERIVATIVES AND ANALOGS THEREOF AND USES THEREFOR” (priority 2007, published 2012).
